From US7563924B2, “9-chloro-15-deoxyprostaglandin derivatives, process for their preparation and their use as medicaments” (Schering Aktiengesellschaft, priority 2005, dated 2009)

Tested on: TNFα release from activated monocytic cells
Experiment: Cytokine release assay in vitro (TNFα, ELISA)
Assay type: cell-based, human
Conditions: 1 μM, 18 hours
Description: Human donor monocyte-derived dendritic cells are cultured in RPMI-1640 containing 10% fetal bovine serum for six days in the presence of 10 ng/mL IL-4 and 200 ng/mL GM-CSF. The cells are activated with various activation stimuli: 10 ng/mL LPS (Sigma), 5 μg/mL recombinant human CD-40 ligand (R&D Systems), or 5 μM Human CpG-DNA (HyCult Biotechnology) in the presence of prostaglandin E2 (PGE2) (1 μM), vehicle control (DMSO) or test substances (1 μM) for 18 hours. The levels of cell culture supernatant TNFα for individual donors is measured by commercial ELISA kits.

CCCCC[C@H](O)/C=C/[C@H]1[C@H](O)CC(=O)[C@@H]1C/C=C\CCCC(=O)O [PGE2, Prostaglandin E2]
TNFα (CD40 ligand, Donor 3): 147.9 pg/mL | TNFα (CD40 ligand, Donor 4): 87.0 pg/mL | TNFα (CD40 ligand, Donor 6): 54.2 pg/mL | TNFα (CpG, Donor 1): 104.5 pg/mL | TNFα (CpG, Donor 3): 70.0 pg/mL | TNFα (CpG, Donor 6): 106.2 pg/mL | TNFα (LPS, Donor 4): 0.0 pg/mL | TNFα (LPS, Donor 6): 174.8 pg/mL
